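Cultured in 96-well plates, cells were exposed to test compound for 48 hours across five concentrations. GI50 marks 50% less growth. TGI: concentration producing complete growth inhibition.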
What was measured:
Test in all cases: DTP human tumour cell line panel, 48 h
786-0 renal = system: 786-0 renal
A498 renal = system: A498 renal
A549 NSCLC = system: A549 NSCLC
ACHN renal = system: ACHN renal
BT-549 breast = system: BT-549 breast
CAKI-1 renal = system: CAKI-1 renal
CCRF-CEM leukemia = system: CCRF-CEM leukemia
COLO 205 colon = system: COLO 205 colon
DLD-1 colon = system: DLD-1 colon
DMS 114 small cell lung = system: DMS 114 small cell lung
DMS 273 small cell lung = system: DMS 273 small cell lung
DU-145 prostate = system: DU-145 prostate
EKVX NSCLC = system: EKVX NSCLC
HCC-2998 colon = system: HCC-2998 colon
HCT-116 colon = system: HCT-116 colon
HCT-15 colon = system: HCT-15 colon
HL-60(TB) leukemia = system: HL-60(TB) leukemia
HOP-62 NSCLC = system: HOP-62 NSCLC
HOP-92 NSCLC = system: HOP-92 NSCLC
HS 578T breast = system: HS 578T breast
HT29 colon = system: HT29 colon
IGROV1 ovarian = system: IGROV1 ovarian
K-562 leukemia = system: K-562 leukemia
KM12 colon = system: KM12 colon
LOX IMVI melanoma = system: LOX IMVI melanoma
LXFL 529 NSCLC = system: LXFL 529 NSCLC
M14 melanoma = system: M14 melanoma
M19-MEL melanoma = system: M19-MEL melanoma
MALME-3M melanoma = system: MALME-3M melanoma
MCF7 breast = system: MCF7 breast
MDA-MB-231 breast = system: MDA-MB-231 breast
MDA-MB-435 = system: MDA-MB-435
MDA-N = system: MDA-N
MOLT-4 leukemia = system: MOLT-4 leukemia
NCI-H226 lung = system: NCI-H226 lung
NCI-H23 lung = system: NCI-H23 lung
NCI-H460 lung = system: NCI-H460 lung
NCI-H522 lung = system: NCI-H522 lung
NCI/ADR-RES ovarian = system: NCI/ADR-RES ovarian
OVCAR-3 ovarian = system: OVCAR-3 ovarian
OVCAR-4 ovarian = system: OVCAR-4 ovarian
OVCAR-5 ovarian = system: OVCAR-5 ovarian
OVCAR-8 ovarian = system: OVCAR-8 ovarian
PC-3 prostate = system: PC-3 prostate
RPMI-8226 leukemia = system: RPMI-8226 leukemia
RXF 393 renal = system: RXF 393 renal
RXF-631 renal = system: RXF-631 renal
SF-268 CNS = system: SF-268 CNS
SF-295 CNS = system: SF-295 CNS
SF-539 CNS = system: SF-539 CNS
SK-MEL-2 melanoma = system: SK-MEL-2 melanoma
SK-MEL-28 melanoma = system: SK-MEL-28 melanoma
SK-MEL-5 melanoma = system: SK-MEL-5 melanoma
SK-OV-3 ovarian = system: SK-OV-3 ovarian
SN12C renal = system: SN12C renal
SNB-19 CNS = system: SNB-19 CNS
SNB-75 CNS = system: SNB-75 CNS
SNB-78 CNS = system: SNB-78 CNS
SR leukemia = system: SR leukemia
SW-620 colon = system: SW-620 colon
T-47D breast = system: T-47D breast
TK-10 renal = system: TK-10 renal
U251 CNS = system: U251 CNS
UACC-257 melanoma = system: UACC-257 melanoma
UACC-62 melanoma = system: UACC-62 melanoma
UO-31 renal = system: UO-31 renal
XF 498 CNS = system: XF 498 CNS
KM20L2 colon = system: KM20L2 colon

## O=P(O)(NCCCl)NCCCl
786-0 renal
  TGI: > 100 µM
A498 renal
  TGI: > 100 µM
A549 NSCLC
  TGI: > 100 µM
ACHN renal
  TGI: > 100 µM
BT-549 breast
  TGI: > 100 µM
CAKI-1 renal
  TGI: > 100 µM
CCRF-CEM leukemia
  TGI: > 100 µM
COLO 205 colon
  TGI: > 100 µM
DLD-1 colon
  GI50: > 100 µM
  TGI: > 100 µM
DMS 114 small cell lung
  GI50: 99.1 µM
  TGI: > 100 µM
DMS 273 small cell lung
  TGI: > 100 µM
DU-145 prostate
  TGI: > 100 µM
EKVX NSCLC
  GI50: > 100 µM
  TGI: > 100 µM
HCC-2998 colon
  TGI: > 100 µM
HCT-116 colon
  TGI: > 100 µM
HCT-15 colon
  GI50: > 100 µM
  TGI: > 100 µM
HL-60(TB) leukemia
  TGI: > 100 µM
HOP-62 NSCLC
  TGI: > 100 µM
HOP-92 NSCLC
  TGI: > 100 µM
HS 578T breast
  TGI: > 100 µM
HT29 colon
  GI50: > 100 µM
  TGI: > 100 µM
IGROV1 ovarian
  TGI: > 100 µM
K-562 leukemia
  TGI: > 100 µM
KM12 colon
  GI50: > 100 µM
  TGI: > 100 µM
LOX IMVI melanoma
  TGI: > 100 µM
LXFL 529 NSCLC
  GI50: > 100 µM
  TGI: > 100 µM
M14 melanoma
  GI50: 5.78 µM
  TGI: > 100 µM
M19-MEL melanoma
  GI50: > 100 µM
  TGI: > 100 µM
MALME-3M melanoma
  TGI: > 100 µM
MCF7 breast
  TGI: > 100 µM
MDA-MB-231 breast
  TGI: > 100 µM
MDA-MB-435
  TGI: > 100 µM
MDA-N
  TGI: > 100 µM
MOLT-4 leukemia
  TGI: > 100 µM
NCI-H226 lung
  TGI: > 100 µM
NCI-H23 lung
  TGI: > 100 µM
NCI-H460 lung
  GI50: 4.03 µM
  TGI: > 100 µM
NCI-H522 lung
  TGI: > 100 µM
NCI/ADR-RES ovarian
  TGI: > 100 µM
OVCAR-3 ovarian
  GI50: > 100 µM
  TGI: > 100 µM
OVCAR-4 ovarian
  TGI: > 100 µM
OVCAR-5 ovarian
  GI50: > 100 µM
  TGI: > 100 µM
OVCAR-8 ovarian
  GI50: > 100 µM
  TGI: > 100 µM
PC-3 prostate
  TGI: > 100 µM
RPMI-8226 leukemia
  TGI: > 100 µM
RXF 393 renal
  GI50: > 100 µM
  TGI: > 100 µM
RXF-631 renal
  TGI: > 100 µM
SF-268 CNS
  TGI: > 100 µM
SF-295 CNS
  TGI: > 100 µM
SF-539 CNS
  TGI: > 100 µM
SK-MEL-2 melanoma
  TGI: > 100 µM
SK-MEL-28 melanoma
  TGI: > 100 µM
SK-MEL-5 melanoma
  GI50: > 100 µM
  TGI: > 100 µM
SK-OV-3 ovarian
  TGI: > 100 µM
SN12C renal
  TGI: > 100 µM
SNB-19 CNS
  GI50: > 100 µM
  TGI: > 100 µM
SNB-75 CNS
  GI50: 7.07 µM
  TGI: > 100 µM
SNB-78 CNS
  GI50: > 100 µM
  TGI: > 100 µM
SR leukemia
  GI50: 40.6 µM
  TGI: > 100 µM
SW-620 colon
  GI50: > 100 µM
  TGI: > 100 µM
T-47D breast
  TGI: > 100 µM
TK-10 renal
  GI50: > 100 µM
  TGI: > 100 µM
U251 CNS
  GI50: > 100 µM
  TGI: > 100 µM
UACC-257 melanoma
  GI50: > 100 µM
  TGI: > 100 µM
UACC-62 melanoma
  TGI: > 100 µM
UO-31 renal
  TGI: > 100 µM
XF 498 CNS
  GI50: > 100 µM
  TGI: > 100 µM

## CCc1cccc(C)c1NC(=O)C1=C(C)NC(C)=C(C(=O)Nc2c(C)cccc2CC)C1c1ccc([N+](=O)[O-])cc1
786-0 renal
  TGI: > 100 µM
A498 renal
  TGI: > 100 µM
A549 NSCLC
  TGI: > 100 µM
ACHN renal
  TGI: > 100 µM
CAKI-1 renal
  TGI: 89.6 µM
CCRF-CEM leukemia
  TGI: > 100 µM
COLO 205 colon
  TGI: > 100 µM
DLD-1 colon
  TGI: > 100 µM
DMS 273 small cell lung
  TGI: > 100 µM
EKVX NSCLC
  TGI: > 100 µM
HCC-2998 colon
  TGI: > 100 µM
HL-60(TB) leukemia
  TGI: 49.5 µM
HOP-62 NSCLC
  TGI: > 100 µM
HOP-92 NSCLC
  TGI: 30.1 µM
HT29 colon
  TGI: > 100 µM
IGROV1 ovarian
  TGI: > 100 µM
K-562 leukemia
  TGI: > 100 µM
KM12 colon
  TGI: > 100 µM
KM20L2 colon
  TGI: > 100 µM
LOX IMVI melanoma
  TGI: > 100 µM
LXFL 529 NSCLC
  TGI: > 100 µM
M14 melanoma
  TGI: > 100 µM
M19-MEL melanoma
  TGI: > 100 µM
MALME-3M melanoma
  TGI: > 100 µM
MOLT-4 leukemia
  TGI: 46.6 µM
NCI-H226 lung
  TGI: > 100 µM
NCI-H23 lung
  TGI: > 100 µM
NCI-H460 lung
  TGI: > 100 µM
NCI-H522 lung
  TGI: 68.3 µM
OVCAR-3 ovarian
  TGI: > 100 µM
OVCAR-4 ovarian
  TGI: > 100 µM
OVCAR-5 ovarian
  TGI: > 100 µM
OVCAR-8 ovarian
  TGI: > 100 µM
RPMI-8226 leukemia
  TGI: 57.3 µM
RXF 393 renal
  TGI: > 100 µM
RXF-631 renal
  TGI: > 100 µM
SF-268 CNS
  TGI: > 100 µM
SF-295 CNS
  TGI: > 100 µM
SF-539 CNS
  TGI: > 100 µM
SK-MEL-2 melanoma
  TGI: > 100 µM
SK-MEL-28 melanoma
  TGI: > 100 µM
SK-MEL-5 melanoma
  TGI: > 100 µM
SK-OV-3 ovarian
  TGI: > 100 µM
SN12C renal
  TGI: > 100 µM
SNB-19 CNS
  TGI: > 100 µM
SNB-75 CNS
  TGI: > 100 µM
SNB-78 CNS
  TGI: > 100 µM
SW-620 colon
  TGI: > 100 µM
TK-10 renal
  TGI: > 100 µM
U251 CNS
  TGI: > 100 µM
UACC-257 melanoma
  TGI: > 100 µM
UO-31 renal
  TGI: > 100 µM
XF 498 CNS
  TGI: 66.9 µM
